Measured values as given in paper PMC8685350, “Activation of the SARS-CoV-2 NSP14 3′–5′ exoribonuclease by NSP10 and response to antiviral inhibitors” (The Journal of Biological Chemistry, 2021).

Tests used:
[1] = molecular target: T1, NSP10/14 complex (Severe acute respiratory syndrome coronavirus 2, UniProt P0DTD1); assay type: binding
T1 construct: gene rep; full-length NSP14 and NSP10 (139 aa), mature chains of replicase polyprotein 1ab; N-terminal His-tags (pDEST527), E. coli Rosetta2; assembled in vitro, copurified on Mono S, near stoichiometric; with Non-structural protein 10

[2] = molecular target: T1, NSP10/14 complex; assay: biochemical
[3] = molecular target: T2, NSP14 (Severe acute respiratory syndrome coronavirus 2, UniProt P0DTD1); assay type: binding
T2 construct: gene rep; full-length NSP14, mature chain of replicase polyprotein 1ab; N-terminal His-tag (pDEST527), E. coli Rosetta2

SMILES: Nc1ncnc2c1ncn2[C@@H]1O[C@H](CSCC[C@H](N)C(=O)O)[C@@H](O)[C@H]1O [S-adenosylhomocysteine]
- Tm at 400 μM SAH [1]: 48.2 ± 0.2 °C
- EC50 [2]: 25 ± 9 µM
- Tm at 40 μM SAH (control Tm 43.1 ± 0.2 °C) [3]: 48.5 ± 0.17 °C
